Results on three compounds are retold here after patent US20110224291A1, “SKIN EXTERNAL COMPOSITION FOR INHIBITING EPIDERMAL HYPERPROLIFERATION AND ALLEVIATING INFLAMMATORY SKIN DISEASES CONTAINING ORTHODIHYDROXYISOFLAVONE DERIVATIVES” (priority 2008, published 2011).

Test [1] relates to Human keratinocyte HaCaT cells. Kind of test: Keratinocyte division inhibition, BrdU colorimetric ELISA. The class given is cell-based. The note with it: HaCaT cells, 1, 10 and 50 μM, 48 hours, BrdU analysis, FIG. 1; for keratinocyte division-inhibiting effect: compared with daidzein. How it is done: Human keratinocyte HaCaT cells were added to 10% fetal bovine serum-containing DMEM medium [Dulbecco's modified Eagle's Medium; Gibco 1210-0038] and cultured in a 24-well plate at a confluence of 70%. The HaCaT cells were treated with 1, 10 and 50 μM of each of 4′,6,7-trihydroxyisoflavone and 3′,4′,7-trihydroxyisoflavone, and after 48 hours, subjected to BrdU analysis. At 12 hours before the BrdU analysis was carried out, BrdU labeling was carried out. The BrdU analysis was carried out using a BrdU colorimetric ELISA kit (Roche) according to the manufacturer's instruction. First, the culture broth was treated with BrdU solution for 12 hours, and then the medium was removed. The cells were fixed, and a peroxidase-conjugated BrdU antibody was added thereto, after which the cells were treated with a substrate solution to induce color development. The degree of color development was measured with an ELISA reader. As positive controls, calcium known to be used for the differentiation of keratinocytes, and troglitazone (TGZ) known to inhibit cell division and induce cell differentiation were used.
Background: In an ELISA, binding on a coated surface is turned into a signal by an enzyme label.

For test [2], the system named is Dickkopf homolog 3 (DKK3). Kind of test: DKK3 expression in keratinocytes by Q-RT-PCR. It counts as cell-based. The following applies: human neonatal keratinocyte cells, 10 μM, 24 hours, FIG. 2. How it is done: (§1) Human neonatal keratinocyte cells purchased from Welskin Co (Seoul, Korea) were subcultured in a 25 cm^2 T-flask and incubated in a CO2 incubator under conditions of 37° C. and 5% CO2. Generally, the experiment was carried out after the cells have been subcultured for 2-3 passages. According to the method of Lonza, Inc. (Walkersville, Md., USA), the medium used in the cell culture was prepared by adding a KGM-2 bullet kit (bovine pituitary extract (2 mg), human epidermal growth factor (0.5 ml), insulin (0.5 ml), hydrocortisone (0.5 mg), transferrin (0.5 mg), epinephrine (0.5 mg), and gentamicin sulfate+amphotericin-B (GA-1000, 0.5 ml)) to 500 ml of KBM-2 medium (Clonetics CC-3103). When a confluence of about 50% was shown 2 days after the subculture of the cells, the serum was starved. After 24 hours, the cells were treated with 10 μM of each of a negative control, an Angelica gigas Nakai extract (positive control), daidzein and Examples 1-6 for 24 hours. […]
(§2) Then, RNA of the cells was isolated using Trizol reagent (Invitrogen, Carlsbad, Calif., USA). The isolated RNA was purified with Qiagen RNeasy kit (Qiagen, Valencia, Calif.), and then the quality of the RNA was confirmed using the Agilent 2100 Bio-Analyzer (Agilent Technologies, Santa Clara, Calif., USA). cDNA was synthesized from the RNA using a superscript reverse transcriptase (RT) kit (Invitrogen, Carlsbad, Calif.) and was quantitatively analyzed through a real time-reverse transcription polymerase chain reaction (Q-RT-PCR). The changes in the expression patterns of genes in the keratinocyte cells were analyzed using the TaqMan®gene expression assay kit (Applied Biosystems, Foster City, Calif.), Dickkopf homolog 3 (DKK3)-HS00247426_m1, and Frizzled homolog 1 (FZD1)-HS00268943_s1 (TagMan primer catalog name), thus confirming the expression levels of DKK3 and FZD1.

The subject of test [3] is Frizzled homolog 1 (FZD1). Nature of the test: FZD1 expression in keratinocytes by Q-RT-PCR. It counts as cell-based. The following applies: human neonatal keratinocyte cells, 10 μM, 24 hours, FIG. 3. On the procedure: as §1, §2
The subject of the next test is TNF-alpha. Kind of test: Anti-inflammatory effect: TNF-alpha gene expression in LPS-treated HaCaT cells. It counts as cell-based, human. The following applies: 10 μM pretreatment 2 hours, 1 μg/ml LPS 8 hours, mRNA normalized to GAPDH, FIG. 4. How it is done: In this Example, human keratinocyte HaCaT cells obtained from the Korean Cell Line Bank (Seoul, Korea) were used. The HaCaT cells were seeded into a DMEM medium containing 10% (v/v) FBS, 100 U/ml penicillin and 100 μg/ml streptomycin and were incubated in an animal cell incubator under conditions of 37° C. and 5% CO2. The HaCaT cells prepared at 1.5×10^6 cells/well were adapted in FBS-free medium for 3 hours. The cells were pretreated with 10 μM of each of 4′,6,7-trihydroxyisoflavone, 3′,4′,7-trihydroxyisoflavone, daidzein and TGZ for 2 hours, 1 μg/ml of lipopolysaccharide (LPS) was added thereto, and then the cells were additionally cultured for 8 hours. Total RNA of the cells was extracted using TRIzol™ (GIBCO BRL, MD, USA) and stored at −80° C. 1 μg of the total RNA was added to 25 μl of a reverse transcription reaction buffer containing 50 mM Tris-HCl (pH 8.3), 75 mM KCl, 3 mM MgCl2, 0.1 M DTT, 10 mM dNTP and 40 U/μl RNase inhibitor. 0.5 μg/μl oligo(dT)16 primers and 200 U SuperScript per Script II reverse transcriptase (GiboBRL) were added thereto, and the total RNA was subjected to a reverse transcription reaction at 42° C. for 1 hour. Then, 2.5 μl of the reverse transcription reaction solution was added to […] of a PCR reaction buffer containing 0.04 U AmpliTaq DNA polymerase (Perkin Elmer, Shelton, Conn.), 50 mM Tris-HCl (pH 8.3), 0.25 mg/ml bovine serum albumin, 3 mM MgCl2, 0.25 mM dNTPs and a 1/50,000 dilution of SYBR green I (Molecular Probes, Eugene, Oreg.), and 10 μM primers were added thereto. Then, a PCR reaction was subjected to PCR amplification. The PCR reaction consisted of 30 cycles of denaturation at 94° C. for 30 sec, annealing at 53° C. for 30 sec and extension at 72° C. for 1 min. The relative mRNA levels were analyzed by measuring the change in fluorescence of SYBR green I using ICycler software. As an internal standard, GAPDH (glyceraldehyde 3-phosphate dehydrogenase) was used to normalize the quantitative expression level of the gene TNF-alpha.

`O=c1c(-c2ccc(O)cc2)coc2cc(O)c(O)cc12` [4′,6,7-trihydroxyisoflavone]: in test [1], the “concentration dependence of inhibition of keratinocyte division” value is listed as “concentration-dependent manner” and the keratinocyte division-inhibiting effect entry is recorded as “significantly superior to that of daidzein”. In addition, in test [2], the “expression level of DKK3” value is on record as “effectively promoted the expression”. The “expression level of FZD1” value in test [3] is listed as “effectively promoted the expression”. For the same compound, the “expression of the TNF-alpha gene” value with TNF-alpha is “strongly inhibited”.

For the compound `O=c1c(-c2ccc(O)cc2)coc2cc(O)ccc12` [daidzein, reference compound], the “expression level of DKK3” value in test [2] is “significantly lower than those in the groups treated with the ortho-dihydroxyisoflavone derivatives”. The “expression level of FZD1” value in test [3] is “significantly lower than those in the groups treated with the ortho-dihydroxyisoflavone derivatives”. Further, the “expression of the TNF-alpha gene” value in the test with TNF-alpha is given as “slightly inhibited”.

Regarding `O=c1c(-c2ccc(O)c(O)c2)coc2cc(O)ccc12` [3′,4′,7-trihydroxyisoflavone], in test [1], the “concentration dependence of inhibition of keratinocyte division” value is recorded as “concentration-dependent manner” and the keratinocyte division-inhibiting effect entry was “significantly superior to that of daidzein”. Moreover, the “expression level of DKK3” value in test [2] was “effectively promoted the expression”. The “expression level of FZD1” value in test [3] is reported as “effectively promoted the expression”. Besides, in the test with TNF-alpha, the “expression of the TNF-alpha gene” value is recorded as “strongly inhibited”.
